Patent US20190167814A1, “Treatment And/Or Prevention Of DNA-Triplet Repeat Diseases Or Disorders” (UNIVERSITÉ DE LAUSANNE, priority 2016, published 2019)

Assays:
GFP(CAG)101 cells [1] = assay: GFP-based assay for CAG repeat expansions and contractions (flow cytometry of GFP- and GFP+ cells); format: cell-based, human; conditions: for Cas9 nickase + gCTG-induced GFP-/GFP+ cells on siRNA knockdown, in words: 20 nM siRNA, compared to control knockdown of vimentin; for frequency of GFP+ cells (contractions) induced by Cas9 nickase + gCTG under inhibitor, in words: inhibitor 1 μM, compared to DMSO controls
Method: (§1) The GFP(CAG)0 and GFP(CAG)101 cells lines were a kind gift from John H. Wilson^3. The cells tested negative for mycoplasma using the MycoAlert detection kit (Lonza) at the start of our experiments. The GFP(CAG)15, GFP(CAG)18, GFP(CAG)42, GFP(CAG)50, and GFP(CAG)270 were isolated from populations grown for 6 months unperturbed or after transfection with the ZFN. […] The cells were maintained at 37° C. with 5% CO2 in Dulbecco's modified Eagle's medium (DMEM) glutamax, supplemented with 10% Fetal Bovine Serum (FBS), 100 U/mL penicillin (pen), 100 μg/mL streptomycin (strep), 15 μg/mL blasticidine and 150 μg/mL hygromycin. When the cells were destined for flow cytometry, they were kept in DMEM glutamax, with 10% of dialyzed calf serum, along with pen-strep. During the long term culturing, the cells were split 1 to 5 twice a week and the medium was supplemented with blasticidine and hygromycin to ensure continued expression of the TetR and GFP transgenes.
The plasmids used in this study are found in Table 2. cDNA transfections were performed using 6×10^5 cells/well in 12-well plates using a total of 1 μg of DNA and Lipofectamine 2000 (Life Technologies) per well. The culture medium was replaced 6 hours after transfection and 2 μg/mL of dox, diluted in DMSO, was added. Controls without dox were treated with DMSO alone. Forty-eight hours later, the medium was replaced and dox was freshly added. Flow cytometry, protein extraction, and/or DNA extraction were performed after another 48 hours of incubation.
The siRNAs used in this study are found in Table 3. When transfecting with both a cDNA and a siRNA, 8×10^5 cells/well were used along with 1 μg of DNA and 20 nM of siRNAs using Lipofectamine 2000. The medium was replaced 6 hours later and dox was added. Forty-eight hours after the first transfection, we performed a second siRNA transfection with RNAiMax (Life technologies) using half of the cells present and 20 nM of siRNA. We collected the cells to assess knockdown efficiency or GFP fluorescence analysis 48 hours later. When transfecting two siRNAs, we used a final siRNA concentration of 40 nM, where 20 nM of each individual siRNA were used.
(§2) When using small molecule inhibitors (Table 4), the cells were treated as above, except that 2×10^5 fewer cells/well were used. The medium, along with the dox and the inhibitors, were replaced for another 48 hours of treatment. Cell cycle analysis was performed after 96 hours of treatment. Briefly, the cells were fixed with 100% ethanol and treated with RNAseA (50 μg/mL) before adding propidium iodine (50 μg/mL). Flow cytometry analysis was performed as described below.
(§3) In preparation for flow cytometry analysis, cells were re-suspended in phosphate buffered saline (PBS) with 1 mM EDTA to a concentration of about 10^6 cells/mL. For each condition, we measured at least 2×10^5 events using a LSRII from BD. Data analysis was done using Flowing II. FACS was performed using a FACS Aria II (BD) or MoFlo Astrios (Beckman Coulter). For single clone analyses, we re-suspended the cells to a concentration of 2×10^6 cells/mL and sorted the GFP^− and GFP^+ cells. The cells were then expanded in DMEM glutamax supplemented with pen-strep, blasticidine, hygromycin, 5% FBS, and 5% dialyzed calf serum. For DNA isolation, cells were re-suspended to a concentration of 1.4×10^7 cells/mL and we isolated between 4×10^4 and […] from the GFP− and GFP^+ populations. We also isolated cells with GFP intensities between the 25th and 75th percentiles. For viability tests, cells were treated as described above except that 96 hours after the first transfection they were collected in PBS with 1 mM EDTA and 1 μM of TO-PRO-3 was added as a dead cell marker.
To quantify the fold increase in the number of GFP^+ or GFP^− cells, we first established gates that contained the top or bottom 1% of GFP expressing cells in the control treatment, for example the nickase plasmid transfected together with an empty gRNA vector (pPN10). […]

GFP(CAG)0 cells = assay: GFP-based reporter assay in isogenic cell line devoid of CAG repeats; design: species or system human; conditions: GFP(CAG)0, no CAG repeats
Method: as §1, with “When the cells were destined for flow cytometry, they were kept in DMEM glutamax, with 10% of dialyzed calf serum, along with pen-strep. During the long term culturing, the cells were split 1 to 5 twice a week and the medium was supplemented with blasticidine and hygromycin to ensure continued expression of the TetR and GFP transgenes.” left out
In preparation for flow cytometry analysis, cells were re-suspended in phosphate buffered saline (PBS) with 1 mM EDTA to a concentration of about 10^6 cells/mL. For each condition, we measured at least 2×10^5 events using a LSRII from BD. […]
To quantify the fold increase in the number of GFP^+ or GFP^− cells, we first established gates that contained the top or bottom 1% of GFP expressing cells in the control treatment, for example the nickase plasmid transfected together with an empty gRNA vector (pPN10). […] Once the GFP gates established, we calculated the percentage of cells from the treated population (e.g., expressing both the Cas9 nickase and the gCTG) falling within these same gates. […]

GFP(CAG)101 cells [2] = assay: Cell cycle analysis upon inhibitor treatment (propidium iodine, flow cytometry); format: cell-based, human; conditions: for >2n / >4n / G1 / G2 / S: Cas9 D10A + gCTG cells, DMSO or inhibitor 1 μM, 96 hours, average % of cells, n = 4
Method: as §2

GFP(CAG)101 cells [3] = assay: Cell viability (TO-PRO-3 dead cell marker, flow cytometry); format: cell-based; conditions: Cas9 D10A + gCTG transfected cells treated with DMSO or inhibitor (1 μM); three experiments
Method: as §3

PARP1/2 = assay: PAR levels after Zeocin treatment (western blot); format: cell-based, human; conditions: 100 μg/ml Zeocin, 30 minutes and 24 hours
Description: Dashed line: dimmest (GFP^−) or brightest (GFP^+) 1% of the cells transfected with the Cas9 nickase vector; the empty gRNA plasmid; and the indicated siRNAs. Right: western blot showing knockdown efficiency by siRNA against XRCC1. B) Left: same as A, but cells treated with the PARP inhibitor Oliparib (n=4, P=0.5 for GFP^− cells and P=0.4 for GFP^+ compared to DMSO treated-cells, using a Wilcoxon U-test). Dashed line: dimmest (GFP^−) or brightest (GFP^+) 1% of the cells transfected with the Cas9 nickase vector together with the empty gRNA plasmid, and treated with either DMSO or Oliparib. Right: PAR levels 30 minutes and 24 hours after treatment with 100 μg/ml of Zeocin. The error bars represent the standard error.
Protein extraction was done using RIPA buffer and proteinase inhibitor cocktail tablets (Roche, Germany) and at least 10 μg of proteins were loaded onto a 6% or 10% Tris/glycine SDS polyacrylamide gels and transferred onto nitrocellulose membranes. The antibodies used in this study are found in Table 6. An Odyssey Infrared Imager (Licor) was used for signal detection.

[4] = inhibitor 1 μM in combination with Cas9-nickase and gCTG, vs nickase + pPN10 + inhibitor

Molecule | Cas9 nickase + gCTG-induced GFP-/GFP+ cells on siRNA knockdown, in words (GFP(CAG)101 cells [1]) | >2n (GFP(CAG)101 cells [2]) | >4n (GFP(CAG)101 cells [2]) | G1 (GFP(CAG)101 cells [2]) | G2 (GFP(CAG)101 cells [2]) | S (GFP(CAG)101 cells [2]) | frequency of GFP+ cells (contractions) induced by Cas9 nickase + gCTG under inhibitor, in words (GFP(CAG)101 cells [1]) | Viability % (GFP(CAG)101 cells [3]) | also measured
siMSH2: siRNA targeting MSH2, SEQ ID No. 6 (UCUGCAGAGUGUUGUGCUU; listed as RNA, chemistry not given here) | did not consistently reduce | – | – | – | – | – | – | – | –
siRNA against XRCC1: siRNA targeting XRCC1, SEQ ID No. 8 (CAGUUUGUGAUCACAGCACAGGAAU; listed as RNA, chemistry not given here) | did not affect the GFP expression | – | – | – | – | – | – | – | –
CS(=O)(=O)c1ccc(-c2cnc(N)c(C(=O)Nc3ccccc3)n2)cc1 [VE-821] | – | 2.0% | 10.3 ± 3% | 41.4% | 25.4% | 20.9% | – | – | fold increase in GFP+ cells (GFP(CAG)101 cells [1]; [4]): 5.9 fold; fold increase in GFP- cells (GFP(CAG)101 cells [1]; [4]): 3.1 fold; effect on GFP intensities / GFP expression, in words (GFP(CAG)0 cells): did not affect GFP expression
C[C@@H]1CN(CC(=O)Nc2ccc3c(c2)Cc2cccc(-c4cc(=O)cc(N5CCOCC5)o4)c2S3)C[C@H](C)O1 [KU60019] | – | 7.5% | 4.9 ± 1% | 34.9% | 37.2% | 15.3% | nearly two-fold reduction | 77.2% | –
siXPA: siRNA targeting XPA, SEQ ID No. 7 (GCUACUGGAGGCAUGGCUA; listed as RNA, chemistry not given here) | did not significantly reduce | – | – | – | – | – | – | – | –
O=C(c1cc(Cc2n[nH]c(=O)c3ccccc23)ccc1F)N1CCN(C(=O)C2CC2)CC1 [Oliparib] | – | 5.0% | 5.3 ± 1% | 40.7% | 30.0% | 19.0% | Neither treatment changed the frequency | 75.9% | PARylation in response to zeocin treatment (PARP1/2): inhibiting PARylation; cell cycle effect, in words (GFP(CAG)101 cells [2]): accumulation of G2 cells
